Data published in US7838049B2, “Extracts and compounds for inhibiting tyrosinase activity” (Taipei Medical University, priority 2009, dated 2010).

Assays:
tyrosinase [1] = target: T1, tyrosinase (Homo sapiens, UniProt P14679); test: Assay of tyrosinase activity in human melanocyte (HEMn) cells; assay type: cell-based; conditions: for inhibitory activity on tyrosinase: HEMn cells treated 24 hours, lysate reacted with L-DOPA, OD475 vs control, FIG. 1 and FIG. 2
T1 construct: Lysis buffer (1% Triton X-100, 1 mM phenylmethylsulfonyl fluoride (PMSF), 1 μg/ml aprotinin, and 10 μg/ml leupeptin) was added to the resulting cells to obtain the cell proteins; host or cells: HEMn human melanocytes, passages 3 to 10
T1 sequence (P14679 19-529): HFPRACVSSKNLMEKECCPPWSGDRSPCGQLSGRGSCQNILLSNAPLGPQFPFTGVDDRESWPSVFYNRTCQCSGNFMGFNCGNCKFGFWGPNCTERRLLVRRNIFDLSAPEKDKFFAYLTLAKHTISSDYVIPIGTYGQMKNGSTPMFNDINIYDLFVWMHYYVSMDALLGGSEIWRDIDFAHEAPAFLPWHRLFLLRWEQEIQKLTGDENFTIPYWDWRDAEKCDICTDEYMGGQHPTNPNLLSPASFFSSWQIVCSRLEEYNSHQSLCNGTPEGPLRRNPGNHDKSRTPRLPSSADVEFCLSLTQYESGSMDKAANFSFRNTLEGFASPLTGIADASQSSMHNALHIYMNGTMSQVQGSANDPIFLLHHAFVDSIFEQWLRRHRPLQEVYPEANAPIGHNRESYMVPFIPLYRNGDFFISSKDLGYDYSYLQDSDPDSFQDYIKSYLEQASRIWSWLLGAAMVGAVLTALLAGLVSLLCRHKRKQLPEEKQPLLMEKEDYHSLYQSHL
Experimental: Human melanocyte (HEMn) cells are cultured with medium 254 containing antibiotics and growth factors (Cascade Biologics, Inc., Portland, Oreg., USA) in an incubator with 5% CO2 for serial passage. Passages 3 to 10 of the HEMn cells were used in the experiments below.
HEMn cells were further cultured for 48 hours and then the ethyl acetate extract of the invention and the test compounds (MHL-1: 3,4-dihydroxy-5-methoxybiphenyl-2′-O-β-d-glucopyranoside and MHL-2: 3,6-dihydroxy-2,4-dimethoxy-dibenzofuran) were added. After 24 hours, the cells were washed with PBS buffer. Lysis buffer (1% Triton X-100, 1 mM phenylmethylsulfonyl fluoride (PMSF), 1 μg/ml aprotinin, and 10 μg/ml leupeptin) was added to the resulting cells to obtain the cell proteins. The cell proteins were kept at −80° C. Subsequently, the cell proteins were thawed and then centrifuged at 12,000 rpm for 5 minutes. The supernatant was taken for determination of the amount of protein by BCA protein assay. The proteins with different concentrations were added to a 96-well microplate and then PBS buffers were added. L-DOPA was added to the microplate to react with the protein at 37° C. for 1 hour. The absorbance of the solution at 475 nm wavelength was detected. Tyrosinase activity (%)=(OD475 of the sample/OD475 of control)×100.
Arbutin as positive control and 1% DMSO as blank were used in the tyrosinase activity assay stated above. […] MHL-1 and MHL-2 inhibit around 40% and 20% tyrosinase activity, respectively. The ethyl acetate extract and the compounds of the invention are effective in inhibiting tyrosinase.

tyrosinase [2] = target: T1, tyrosinase; test: Tyrosinase oxidative activity analysis by L-Dopa staining of SDS-PAGE gels; assay type: cell-based; conditions: HEMn cells treated with 100, 80 and 60 μM of MHL-1; FIG. 3
Experimental: The compound of the invention, MHL-1, with different concentrations was added to HEMn cells. The lysis of HEMn cells, isolation of cell proteins and BCA protein assay were performed on the supernatant obtained as stated in Example 1 so that the amount of the protein could be determined. 10% SDS-polyacrylamide gel electrophoresis (dd-H2O; 10% Acrylamide mix; 1.5M Tris-base pH8.8; 10% SDS; 10% Ammonium persulfate; TEMED) was performed on the resulting protein and the sample buffer (60 mM Tris-HCl, pH 6.8, 2% sodium dodecyl sulfate (SDS), 10% glycerol, 0.01% bromophenol blue) at the same time. The molecular weight of tyrosinase was about 72 kDa. The resulting gels were washed with 0.1 M of PBS (pH 6.8) for 30 minutes and then the protein at the position of 72 kDa reacted with 5 mM L-DOPA in 0.1 M PBS at 37° C. for 1 hour. After the reaction, Quantity One 1-D software was used to determine the amount of protein.

## COc1cc2c(oc3c(O)cccc32)c(OC)c1O [MHL-2, 3,6-dihydroxy-2,4-dimethoxy-dibenzofuran]
Tyrosinase [1]
  inhibitory activity on tyrosinase: ~20%

## COc1cc(-c2ccccc2OC2OC(CO)C(O)C(O)C2O)cc(O)c1O [MHL-1, 3,4-dihydroxy-5-methoxybiphenyl-2′-O-β-D-glucopyranoside]
Tyrosinase [2]
  tyrosinase oxidative activity (L-DOPA staining of the 72 kDa band): the higher the concentration of MHL-1, the lower the tyrosinase oxidative activity
Tyrosinase [1]
  inhibitory activity on tyrosinase: around 40%
Tyrosinase [1]; HEMn cells, FIG. 2
  tyrosinase inhibitory activity compared with arbutin (positive control): superior activity compared to arbutin
